# Like-named read-outs stand apart in the source and are kept apart here. Bridge positions count the residues as written; N and C are the ends. Square brackets hold non-standard residues; d marks the D form. Peptide text beside a SMILES is read from it. * marks the point of attachment. X1 = NC[C@@H](CC(=O)*)c1cccc(Cl)c1; Dab = NCC[C@H](N)C(=O)O; Dap = NC[C@H](N)C(=O)O
# Assays:
# [1] = human; cited from earlier work
# [2] = system: kidney cell; settings: cited from earlier work
# [3] = human, in vivo, cited from earlier work
# [4] = parameters: species or system human; settings: in vivo
# Description: (§1) Subjects in Cohorts 1–4 had serial blood samples collected to determine plasma SPR206 concentrations at pre-dose (0) and 0.5, 1, 1.25, 1.5, 2, 2.5, 3, 5, 8, 10, 12, 18, 24, and 36 h post-dose. Total voided urine was collected over a 2-h interval from −2 to 0 h (pre-dose) and at 0–4, 4–8, 8–12, 12–24, and 24–36 h post-dose. For subjects in Cohort 5, blood samples were collected on dosing days 1 and 5 pre-dose (0 h) and 0.5, 1, 1.25, 1.5, 2, 2.5, 3, 5, 8, 10, 12, 18, 24, and 36 h after dosing. On day 5 (Period 2), the 1-h post-dose sample was collected immediately prior to initiation of dialysis, and the 5-h post-dose sample was collected 10 min prior to the end of dialysis. The 36-h post-dose samples on days 3 and 7 were collected prior to the next dialysis session if scheduled on the same day. In Period 2, blood samples were collected from both the inflow (arterial) and outflow (venous) lines pre-dialysis and at approximately 1, 2, 3, and 4 h after initiation of HD on day 5. If the HD session was shorter or longer than 4 h after the start of HD, a final sample was collected at the end of dialysis. Plasma and urine samples were assayed for SPR206 using a validated liquid chromatography tandem mass spectrometry method (QPS, LLC, Newark, DE, USA). For plasma, the assay range was 50 to 50,000 ng/mL, and for urine, the range was 100 to 50,000 ng/mL. In plasma, the intraday precision (% coefficient of variation) ranged from 1.3% to 7.7%, and the accuracy (% relative error) ranged from 1.6% to 6.0%. In urine, the intraday precision (% coefficient of variation) ranged from 1.7% to 7.5%, and the accuracy (% relative error) ranged from −4.8% to 7.3%. Additional details are provided in the Supplement. Urine PK parameters included Aet, Ae%, Aeu, CLR, Fe, and Feu.
# [5] = clinical; parameters: species or system human; AUC0–∞ LS GMR vs healthy subjects, range / AUC0–last LS GMR vs healthy subjects, range / AUC0−8, LS GMR (90% CI): unit not given beside the values; settings: in vivo
# From the text: This was a Phase 1, open-label study to assess the safety, tolerability, and PK of a single 100-mg IV dose of SPR206 administered to healthy adults with normal renal function and those with varying degrees of RI including subjects with ESRD on HD. Subjects were screened within 28 days prior to dosing. Study drug administration occurred on day 1 for Cohorts 1–4 (normal renal function, mild RI, moderate RI, and severe RI) and on days 1 and 5 for Cohort 5 (ESRD on HD). Subjects remained confined to the clinical study unit from day −1 (1 day prior to study drug administration) until completion of the scheduled study procedures at the end of confinement on day 4 (Cohorts 1–4) or on day 7 (Cohort 5). A follow-up safety visit occurred 7 to 14 calendar days after the last dose for all subjects.
# On the morning of day 1, subjects in Cohorts 1–4 received a single 100-mg IV dose of […] infused over 1 h. Subjects in Cohort 5 received a single IV dose of SPR206 within 2 h (±1 h) after completion of regularly scheduled HD on day 1 (Period 1) and a second dose approximately 1 h prior to their regularly scheduled HD on day 5 (Period 2). Details of the HD procedure are provided in the Supplement.
# as §1, with “Supplement.” for “Supplement. Urine PK parameters included Aet, Ae%, Aeu, CLR, Fe, and Feu.”
# For all cohorts, the following PK parameters were calculated using noncompartmental methods based on plasma SPR206 concentrations: C max, T max, AUC0−last, AUC0−8, AUC0−∞, terminal elimination half-life (t 1/2), CL, and volume of distribution at the terminal phase (V Z). For Cohort 5, additional parameters were extraction ratio (ER), estimated hemodialysis clearance, and amount of the dose removed by hemodialysis. The ER was calculated as 100 × [(CA − CV)/CA], where CA and CV were predialyzer and postdialyzer paired drug concentrations at the arterial and venous sites. SPR206 clearance during HD (CLHD) was calculated using the following equation: CLHD = Q × ER, where Q was the known blood flow through the dialyzer. The amount of SPR206 removed by dialysis (XHD) was estimated by multiplying the AUC during dialysis [i.e., AUC from the beginning of dialysis to end of dialysis (AUCon–HD)] by CLHD: XHD = AUCon–HD × CLHD.
# Mean and individual plasma concentration-time curves were tabulated for each cohort (and for Cohort 5 subjects by period). […]
# [6] = Safety/tolerability (TEAEs, laboratory, ECG), Phase 1 renal impairment study; assay type: in vivo, human
# [7] = rat, in vivo; cited from earlier work
# [8] = parameters: species or system human; AUC0-8 vs eGFR regression, Coefficient (95% CI) / AUC0-last vs eGFR regression, Intercept / AUC0-last vs eGFR regression, Coefficient (95% CI) / AUC0-∞ vs eGFR regression, Intercept / AUC0-∞ vs eGFR regression, Coefficient (95% CI) / AUC0-8 vs eGFR regression, Intercept: unit not given beside the values; settings: in vivo
# Description: To model the relationship between renal function and PK parameters, a linear regression analysis was performed using log-transformed values of AUC0–8, AUC0–last, AUC0–∞, C max, and CL, which were dependent variables. The independent variable to predict the PK parameters was eGFR after adjusting for baseline covariates (age, gender, race, and body weight). Parameter estimates, standard errors, confidence intervals (CIs), and P-values were presented.
# [9] = human, in vivo; cited from earlier work
# [10] = system: P. aeruginosa; parameters: method as in doi:10.1093/ofid/ofac492.1306, doi:10.1093/ofid/ofac492.1307; settings: P. aeruginosa clinical isolates; cited from earlier work
# [11] = cited from earlier work
# [12] = system: Acinetobacter species; parameters: method as in doi:10.1093/ofid/ofac492.1306, doi:10.1093/ofid/ofac492.1307; settings: Acinetobacter species clinical isolates; cited from earlier work
# [13] = system: Enterobacterales; parameters: method as in doi:10.1093/ofid/ofac492.1306, doi:10.1093/ofid/ofac492.1307; settings: Enterobacterales clinical isolates; cited from earlier work
compound,measurement,setting,value
CC(C)C[C@@H]1NC(=O)[C@@H](Cc2ccccc2)NC(=O)[C@H](CCN)NC(=O)[C@@H](NC(=O)[C@H](CN)NC(=O)[C@@H](NC(=O)C[C@H](CN)c2cccc(Cl)c2)[C@@H](C)O)CCNC(=O)[C@H]([C@@H](C)O)NC(=O)[C@H](CCN)NC(=O)[C@H](CCN)NC1=O [SPR206] (X1-T[Dap][Dab][Dab][dF]L[Dab][Dab]T; lactam 3-C (inferred)),Protein binding,[1],≤ 12.8%
same,kidney cell cytotoxicity compared with polymyxin B,[2],lower kidney cell cytotoxicity
same,AUC0–∞,[3]; iv,20400 ng·h/mL
same,C max,[3]; iv,5300 ng/mL
same,total CL,[3]; iv,5.0 L/h
same,pharmacokinetic profile in a Phase 1 study,[3],dose-proportional
same,tolerability in a Phase 1 study,[3],well tolerated
same,mean CLR as % of total CL,[4]; human,24.6%
same,time up to which urine concentrations were quantifiable,[4],up to 36 h
same,time within which SPR206 was excreted in urine,[4],≤ 12 h
same,AUC0–last greater than healthy subjects,[5]; human,131%
same,CL lower than healthy subjects,[5]; human,75%
same,time of peak plasma concentration (end of infusion),[5]; human,1 h
same,AUC(0-t),"[5]; human, AUC0–8, LS GM (SE)",21800 ng·h/mL
same,AUC(0-t),"[5]; human, AUC0−8, LS GM (SE)",17300 ng·h/mL
same,Cmax,"[5]; human, C max, LS GM (SE)",5900 ng/mL
same,Cmax,"[5]; human, iv, C max, geometric mean (CV %)",5900 ng/mL
same,Cmax,"[5]; human, mean peak concentration (C max)",~6500 ng/mL
same,"AUC0–last LS GMR vs healthy subjects, range",[5],1.39-3.39
same,"AUC0–∞ LS GMR vs healthy subjects, range",[5],1.39-4.09
same,"AUC0−8, LS GMR (90% CI)",[5],"0.59 (0.52, 0.67)"
same,"C max LS GMR vs healthy subjects, range",[5],1.07-1.14
same,"CL LS GMR vs healthy subjects, range",[5],0.71-0.24
same,mean AUC0–last greater in subjects with RI vs healthy subjects,[5],39-239%
same,"mean AUC0–last lower, dialyzed vs nondialyzed",[5],51%
same,mean plasma CL lower vs healthy subjects,[5],29-76%
same,"deaths, treatment-related serious AEs, TEAEs leading to study discontinuation",[6]; all cohorts,"No deaths, treatment-related serious AEs, or TEAEs leading to study discontinuation were reported"
same,"TEAE headache, overall incidence",[6]; in vivo,13.5%
same,"TEAE paresthesia, overall incidence",[6]; in vivo,8.1%
same,"clinical laboratory results, ECG findings, physical examination",[6]; in vivo,No clinically significant abnormalities
same,relation of the two serious (severe) TEAEs to study drug,[6]; in vivo,unrelated to study drug
same,serum creatinine levels from screening through follow-up,[6]; in vivo,remained stable
same,subjects whose TEAEs were mild,[6]; in vivo,19 (51.4%) subjects (%)
same,subjects with at least one TEAE,[6]; in vivo,23 (62.2%) subjects (%)
same,"subjects with moderate TEAEs (infusion site phlebitis, drug hypersensitivity) leading to study drug discontinuation",[6]; in vivo,5.4%
same,subjects with treatment-related AEs,[6]; in vivo,13 (35.1%) subjects (%)
same,"treatment-related adverse events, severity",[6]; in vivo,Mostly mild but no serious treatment-related adverse events were reported
same,"TEAE oral paresthesia, overall incidence","[6]; in vivo, po",8.1%
same,kidney exposure compared with polymyxin B,[7],lower kidney exposure
same,"AUC0-8 vs eGFR regression, Coefficient (95% CI)",[8],"−0.0063 (−0.0083, –0.0044)"
same,"AUC0-8 vs eGFR regression, Intercept",[8],3.5
same,"AUC0-last vs eGFR regression, Coefficient (95% CI)",[8],"−0.0147 (−0.0168, –0.0125)"
same,"AUC0-last vs eGFR regression, Intercept",[8],4.5
same,"AUC0-∞ vs eGFR regression, Coefficient (95% CI)",[8],"−0.0161 (−0.0190, –0.0131)"
same,"AUC0-∞ vs eGFR regression, Intercept",[8],4.6
same,"C max vs eGFR regression, Coefficient (95% CI)",[8],"−0.0018 (−0.0040, 0.0005)"
same,"C max vs eGFR regression, Intercept",[8],2.0
same,"CL vs eGFR regression, Coefficient (95% CI)",[8],"0.0172 (0.0148, 0.0196)"
same,"CL vs eGFR regression, Intercept",[8],0.1
same,AUC0–8,[9],20100 ng·h/mL
same,C max,[9],4400 ng/mL
colistin,MIC90,[10],1 µg/mL
same,route of elimination,[11]; in vivo,eliminated primarily by non-renal mechanisms
same,MIC90,[12],1 µg/mL
same,MIC90,[13],0.5 µg/mL
colistin methanesulfonate,route of elimination,[11]; in vivo,eliminated predominantly by renal excretion
polymyxin B,route of elimination,[11],eliminated primarily by non-renal mechanisms
